Data from patent publication US20250320205A1, “STAT6 DEGRADERS” (Gilead Sciences, Inc., priority 2024, published 2025).

Experiments:
[1] = target: T1, STAT6 (Homo sapiens, UniProt P42226); test: STAT6 Degrader Assay (HiBiT based, HeLa LgBiT clone 4.14 cells); assay type: cell-based; conditions: geometric mean across assay runs and compound batches; DC50 provided for test compounds with >80% Emax; read-out: STAT6 degradation DC50
T1 construct: These cells express endogenous STAT6; host or cells: HeLa LgBiT clone 4.14 (CRISPR knock-in of HiBiT into the endogenous STAT6 gene)
T1 sequence (P42226 1-847): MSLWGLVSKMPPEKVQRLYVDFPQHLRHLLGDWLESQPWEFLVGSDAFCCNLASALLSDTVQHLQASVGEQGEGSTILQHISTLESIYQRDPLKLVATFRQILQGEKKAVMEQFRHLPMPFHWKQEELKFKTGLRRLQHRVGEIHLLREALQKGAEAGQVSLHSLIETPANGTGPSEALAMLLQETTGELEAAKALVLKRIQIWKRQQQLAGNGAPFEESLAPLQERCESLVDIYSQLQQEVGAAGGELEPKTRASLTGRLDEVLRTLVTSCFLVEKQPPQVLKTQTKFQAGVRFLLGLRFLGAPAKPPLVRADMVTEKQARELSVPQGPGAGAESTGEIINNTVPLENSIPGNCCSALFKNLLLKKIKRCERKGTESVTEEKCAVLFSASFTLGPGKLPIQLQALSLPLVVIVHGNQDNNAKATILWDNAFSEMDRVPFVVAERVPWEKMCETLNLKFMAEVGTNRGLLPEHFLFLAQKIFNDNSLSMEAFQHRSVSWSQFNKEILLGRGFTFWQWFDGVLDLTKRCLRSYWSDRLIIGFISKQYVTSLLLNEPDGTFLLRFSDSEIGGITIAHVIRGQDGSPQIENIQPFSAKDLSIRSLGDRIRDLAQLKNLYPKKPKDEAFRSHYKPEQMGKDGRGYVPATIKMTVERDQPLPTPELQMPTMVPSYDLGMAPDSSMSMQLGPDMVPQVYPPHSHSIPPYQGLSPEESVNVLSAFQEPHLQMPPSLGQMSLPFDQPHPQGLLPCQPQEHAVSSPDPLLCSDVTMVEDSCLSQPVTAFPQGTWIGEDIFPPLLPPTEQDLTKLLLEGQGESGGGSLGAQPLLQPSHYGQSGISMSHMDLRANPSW
Method in brief: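 DC50 (nM) comes from NanoBiT luminescence of HiBiT-knock-in STAT6 in HeLa LgBiT clone 4.14 cells, treated 4-24 h at 37° C. Luminescence reflects non-degraded STAT6, with 50 μM terfenadine wells taken as full degradation.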

[2] = system: Eotaxin-3 (CCL26) release; test: Human Whole Blood Eotaxin-3 Assay (IL-4 stimulated); assay type: cell-based; conditions: geometric mean across assay runs and compound batches, EC50 provided for test compounds with >80% Emax
Method in brief: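 Lithium-heparin human whole blood preincubated 2 h at 37 °C with compounds (4-fold dilutions, triplicate, 0.5% DMSO final). Then stimulated with 400 pM final recombinant human IL-4 for 48 h. Eotaxin-3 in supernatant quantified by MSD immunoassay.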

Structure (SMILES)	DC50 [1] [nM]	EC50 ([2]; Homo sapiens) [nM]	EC50 [2] [nM]
CNc1ccn(-c2ccnc3c2cc([C@H](C)N2CC=C(c4c(C)cc(C(=O)N5CCn6nc(CN7CCC(c8ccc(NC9CCC(=O)NC9=O)cc8F)CC7)cc6C5)cc4F)CC2)n3C)c(=O)c1 (stereo partly drawn) [Example 2g15, 3-((3-fluoro-4-(1-((5-(3-fluoro-5-methyl-4-(1-((S)-1-(1-methyl-4-(4-(methyl-amino)-2-oxopyridin-1(2H)-yl)-1H-pyrrolo[2,3-b]pyridin-2-yl)ethyl)-1,2,3,6-tetrahydro-pyridin-4-yl)benzoyl)-4,5,6,7-tetrahydropyrazolo[1,5-a]pyr-azin-2-yl)methyl)piperidin-4-yl)phenyl)amino)piperidine-2,6-dione]	0.2	0.1	–
Cc1cc(C(=O)N2CCC(CN3CCN(c4ccc(NC5CCC(=O)NC5=O)cc4F)CC3)CC2)cc(F)c1C1=CCN([C@@H](C)c2cc3c(-n4ccc5c(c4=O)CCN5)ccnc3n2C)CC1 (stereo partly drawn) [Example 2g18, 3-((3-fluoro-4-(4-((1-(3-fluoro-5-methyl-4-(1-((S)-1-(1-methyl-4-(4-oxo-1,2,3,4-tetrahydro-5H-pyrrolo[3,2-c]pyridin-5-yl)-1H-pyrrolo[2,3-b]pyridin-2-yl)ethyl)-1,2,3,6-tetrahydropyridin-4-yl)benzo-yl)piperidin-4-yl)methyl)-piperazin-1-yl)phenyl)amino)-piperidine-2,6-dione]	3.1	5.5	–
Cc1cc(C(=O)N2CCn3nc(CN4CCC(c5ccc(NC6CCC(=O)NC6=O)cc5F)CC4)cc3C2)cc(F)c1C1=CCN([C@@H](C)c2cc3c(-n4ccc5c(c4=O)CCN5)ccnc3n2C)CC1 (stereo partly drawn) [Example 2g25, 3-((3-fluoro-4-(1-((5-(3-fluoro-5-methyl-4-(1-((S)-1-(1-methyl-4-(4-oxo-1,2,3,4-tetrahydro-5H-pyrrolo[3,2-c]pyridin-5-yl)-1H-pyrrolo[2,3-b]pyridin-2-yl)ethyl)-1,2,3,6-tetrahydropyridin-4-yl)benzo-yl)-4,5,6,7-tetrahydropyrazolo [1,5-a]pyrazin-2-yl)methyl)-piperidin-4-yl)phenyl)amino)-piperidine-2,6-dione]	0.6	0.4	–
CNc1ccn(-c2ccnc3c2cc([C@H](C)N2CC=C(c4c(C)cc(C(=O)N5CCn6nc(CC7(O)CCN(c8ccc(NC9CCC(=O)NC9=O)cc8F)CC7)cc6C5)cc4F)CC2)n3C)c(=O)c1 (stereo partly drawn) [Example 2g26, 3-((3-fluoro-4-(4-((5-(3-fluoro-5-methyl-4-(1-((S)-1-(1-methyl-4-(4-(methyl-amino)-2-oxopyridin-1(2H)-yl)-1H-pyrrolo[2,3-b]pyridin-2-yl)ethyl)-1,2,3,6-tetrahydro-pyridin-4-yl)benzoyl)-4,5,6,7-tetrahydropyrazolo[1,5-a]pyr-azin-2-yl)methyl)-4-hydroxy-piperidin-1-yl)phenyl)amino)-piperidine-2,6-dione]	1.5	0.9	–
CNc1cc(=O)n(-c2ccnc3c2cc(CN2CCC(c4c(F)cc(C(=O)N5CCC(CN6CCN(c7ccc(NC8CCC(=O)NC8=O)cc7F)CC6)CC5)cc4F)CC2)n3C)cc1F (stereo not drawn) [Example 2g32, 3-((4-(4-((1-(3,5-difluoro-4-(1-((4-(5-fluoro-4-(methyl-amino)-2-oxopyridin-1(2H)-yl)-1-methyl-1H-pyrrolo[2,3-b]pyridin-2-yl)methyl)piperi-din-4-yl)benzoyl)piperidin-4-yl)methyl)piperazin-1-yl)-3-fluorophenyl)amino)piperi-dine-2,6-dione]	10.6	56.9	–
Cn1c(CN2CCC(c3c(F)cc(C(=O)N4CCC(CN5CCN(c6ccc(NC7CCC(=O)NC7=O)cc6F)CC5)CC4)cc3F)CC2)cc2c(-n3ccc4c(c3=O)CCN4)ccnc21 (stereo not drawn) [Example 2g35, 3-((4-(4-((1-(3,5-difluoro-4-(1-((1-methyl-4-(4-oxo-1,2,3,4-tetrahydro-5H-pyrrolo [3,2-c]pyridin-5-yl)-1H-pyrrolo[2,3-b]pyridin-2-yl)-methyl)piperidin-4-yl)benzo-yl)piperidin-4-yl)methyl)-piperazin-1-yl)-3-fluorophen-yl)-amino)piperidine-2,6-dione]	16	73.2	–
CNc1ccn(-c2ccnc3c2cc([C@H](C)N2CCC(c4c(C)cc(C(=O)N5CCC(CN6CCN(c7ccc(NC8CCC(=O)NC8=O)cc7F)CC6)CC5)cc4F)CC2)n3C)c(=O)c1 (stereo partly drawn) [Example 2g43, 3-((3-fluoro-4-(4-((1-(3-fluoro-5-methyl-4-(1-((S)-1-(1-methyl-4-(2-(methyl-amino)-2-oxopyridin-1(2H)-yl)-1H-pyrrolo[2,3-b]pyridin-2-yl)ethyl)piperidin-4-yl)-benzoyl)piperidin-4-yl)meth-yl)piperazin-1-yl)phenyl)-amino)piperidine-2,6-dione]	15.7	64.6	–
CNc1ccn(-c2ccnc3c2cc([C@H](C)N2CC=C(c4c(C)cc(C(=O)N5CCn6nc(CN7CCC(c8ccc(NC9CCC(=O)NC9=O)c(OC)c8)CC7)c(Cl)c6C5)cc4F)CC2)n3C)c(=O)c1 (stereo partly drawn) [Example 2g52, 3-((4-(1-((3-chloro-5-(3-fluoro-5-methyl-4-(1-((S)-1-(1-methyl-4-(4-(methyl-amino)-2-oxopyridin-1(2H)-yl)-1H-pyrrolo[2,3-b]pyridin-2-yl)ethyl)-1,2,3,6-tetrahydro-pyridin-4-yl)benzoyl)-4,5,6,7-tetrahydropyrazolo[1,5-a]pyrazin-2-yl)methyl)piperi-din-4-yl)-2-methoxyphenyl)-amino)piperidine-2,6-dione]	0.8	0.3	–
C[C@@H](c1cc2c(-n3ccc4c(c3=O)CCN4)ccnc2n1C)N1CCC(c2ccc(C(=O)N3CCN(CC4CCN(c5ccc(NC6CCC(=O)NC6=O)cc5F)CC4)CC3)cc2)CC1 (stereo partly drawn) [Example 2g53, 3-((3-fluoro-4-(4-((4-(4-(1-((S)-1-(1-methyl-4-(4-oxo-1,2,3,4-tetrahydro-5H-pyrrolo [3,2-c]pyridin-5-yl)-1H-pyrrolo[2,3-b]pyridin-2-yl)-ethyl)piperidin-4-yl)benzoyl)-piperazin-1-yl)methyl)piperi-din-1-yl)phenyl)amino)piperi-dine-2,6-dione]	47.8	–	63.1
Cc1cc(C(=O)N2CCC(CN3CCN(c4ccc(NC5CCC(=O)NC5=O)cc4F)CC3)CC2)cc(F)c1C1=CCN(Cc2cc3c(-n4ccc5c(c4=O)CCN5)ccnc3n2C)CC1 (stereo not drawn) [Example 2g59, 3-((3-fluoro-4-(4-((1-(3-fluoro-5-methyl-4-(1-((1-methyl-4-(4-oxo-1,2,3,4-tetrahydro-5H-pyrrolo[3,2-c]pyridin-5-yl)-1H-pyrrolo [2,3-b]pyridin-2-yl)methyl)-1,2,3,6-tetrahydropyridin-4-yl)benzoyl)piperidin-4-yl)-methyl)piperazin-1-yl)phen-yl)amino)piperidine-2,6-dione]	6.1	20.4	–
CNc1cc(=O)n(-c2ccnc3c2cc(CN2CC=C(c4c(F)cc(C(=O)N5CCC(CN6CCN(c7ccc(NC8CCC(=O)NC8=O)cc7F)CC6)CC5)cc4F)CC2)n3C)cc1F (stereo not drawn) [Example 2g65, 3-((4-(4-((1-(3,5-difluoro-4-(1-((4-(5-fluoro-4-(methyl-amino)-2-oxopyridin-1(2H)-yl)-1-methyl-1H-pyrrolo[2,3-b]pyridin-2-yl)methyl)-1,2,3,6-tetrahydropyridin-4-yl)benzoyl)piperidin-4-yl)-methyl)piperazin-1-yl)-3-fluorophenyl)amino)piperi-dine-2,6-dione]	120	408	–
CNc1cc(=O)n(-c2ccnc3c2cc([C@H](C)N2CC=C(c4c(C)cc(C(=O)N5CCn6nc(CN7CCC(c8ccc(NC9CCC(=O)NC9=O)c(OC)c8)CC7)cc6C5)cc4F)CC2)n3C)cc1F (stereo partly drawn) [Example 2g90, 3-((4-(1-((5-(3-fluoro-4-(1-((S)-1-(4-(5-fluoro-4-(meth-ylamino)-2-oxopyridin-1(2H)-yl)-1-methyl-1H-pyrrolo[2,3-b]pyridin-2-yl)ethyl)-1,2,3,6-tetrahydropyridin-4-yl)-5-methylbenzoyl)-4,5,6,7-tetra-hydropyrazolo[1,5-a]pyrazin-2-yl)methyl)piperidin-4-yl)-2-methoxyphenyl)amino)-piperidine-2,6-dione]	0.2	0.6	–
